Results taken from BindingDB's records for doi:10.7270/Q2VX0FC0 (D3R/Abbott, 2016).

Tests used:
[1] = biological target: T1, Heat shock protein HSP 90-beta (Homo sapiens, UniProt P08238); test: Thermofluor Assay
Source text: Thermofluor Assay

[2] = biological target: T1, Heat shock protein HSP 90-beta; test: ITC
Source text: ITC

T1 sequence (P08238 whole entry): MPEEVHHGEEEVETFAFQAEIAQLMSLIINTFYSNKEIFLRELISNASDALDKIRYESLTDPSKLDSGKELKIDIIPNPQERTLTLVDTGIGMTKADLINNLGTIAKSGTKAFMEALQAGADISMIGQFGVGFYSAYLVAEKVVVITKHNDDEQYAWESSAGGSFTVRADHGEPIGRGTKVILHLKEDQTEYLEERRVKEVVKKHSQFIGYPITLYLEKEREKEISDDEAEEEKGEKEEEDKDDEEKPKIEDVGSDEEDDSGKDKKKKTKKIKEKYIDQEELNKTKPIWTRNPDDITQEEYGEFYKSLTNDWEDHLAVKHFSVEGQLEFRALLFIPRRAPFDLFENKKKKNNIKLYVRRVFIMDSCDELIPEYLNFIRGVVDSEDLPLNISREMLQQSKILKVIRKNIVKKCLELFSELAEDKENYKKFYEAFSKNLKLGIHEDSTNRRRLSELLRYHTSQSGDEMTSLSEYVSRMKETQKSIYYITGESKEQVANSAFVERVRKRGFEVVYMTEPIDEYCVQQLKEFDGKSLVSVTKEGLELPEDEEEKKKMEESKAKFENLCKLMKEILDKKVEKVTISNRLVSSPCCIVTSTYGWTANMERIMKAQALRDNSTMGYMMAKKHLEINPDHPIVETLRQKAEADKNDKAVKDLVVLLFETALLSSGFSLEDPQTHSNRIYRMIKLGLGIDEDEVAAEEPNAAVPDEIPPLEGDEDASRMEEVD

Compound	Kd [1] [µM]	Kd [2] [µM]
O=C(c1ccc(O)cc1O)c1ccc(O)c(O)c1O [Polyhydroxy benzophenone, 8]	> 100	
O=C(c1cccc(O)c1)c1ccc(O)cc1O [Polyhydroxy benzophenone, 12]	28.9	11.5
O=c1[nH]c2ccccc2n1-c1cc(-c2ccccc2O)c(O)cc1O [hsp90_10]	4.58	6.58
CCCc1cc(-n2c(=O)[nH]c3ccccc32)c(O)cc1O [hsp90_12]	0.123	0.0686
COC(=O)c1cc(-n2c(=O)[nH]c3cc(C(F)(F)F)cc(Cl)c32)c(O)cc1OC [hsp90_13]	> 100	
O=c1[nH]c2ccccc2n1-c1cc(-c2ccnc3ccccc23)c(O)cc1O [hsp90_23]		3.06
COc1cc(-c2cc(-n3c(=O)[nH]c4ccccc43)c(O)cc2O)cc(OC)c1OC [hsp90_24]	0.993	10.3
O=c1[nH]c2ccccc2n1-c1cc(-c2cccnc2O)c(O)cc1O [hsp90_34]	94.8	54
CC1c2cc(-n3c(=O)[nH]c4ccccc43)c(O)cc2OC1(C)C (centres undefined) [hsp90_35]	> 100	
CC(C)c1ccc(S(=O)(=O)NCc2ccc3c(c2)[nH]c(=O)n3-c2cc(Cl)c(O)cc2O)cc1 [hsp90_38]	0.225	0.115
CCc1cc(-n2c(=O)[nH]c3ccccc32)c(O)cc1O [hsp90_40]	0.165	0.069
O=c1[nH]c2cc(CNS(=O)(=O)c3ccccc3O)ccc2n1-c1cc(Cl)c(O)cc1O [hsp90_43]	0.172	0.0107
O=c1[nH]c2cc(CNS(=O)(=O)c3cccnc3)ccc2n1-c1cc(Cl)c(O)cc1O [hsp90_44]	0.376	0.0268
COc1cccc(OC)c1-c1cc(C)nc(N)n1 [hsp90_70]	2.28	1.48
Cc1cc(-c2ccc([N+](=O)[O-])cc2Cl)nc(N)n1 [hsp90_73]	4.53	0.393
Nc1nc(-c2ccc(C(F)(F)F)cc2Cl)cc(-c2ccc(C(F)(F)F)cc2Cl)n1 [hsp90_77]	> 100	

More lines, now with the values ahead:

Kd [1] [µM]	Kd [2] [µM]	Compound
265		COc1ccc(-c2cc(-c3ccc(Cl)cc3Cl)nc(N)n2)c(OC)c1 [hsp90_84]
2.25		Nc1nc(Cl)c(/C=N/O)c(-c2ccc(Cl)cc2Cl)n1 [hsp90_87]
11.2		CCOC(=O)CO/N=C/c1c(Cl)nc(N)nc1-c1ccc(Cl)cc1Cl [hsp90_91]
91	64	Cc1cc(-n2nc(C(=O)NCC3COC(C)(C)O3)cc2C)nc(N)n1 (centres undefined) [hsp90_95]
> 100		Cc1cc(CNC(=O)N2CCN(S(C)(=O)=O)C2=O)nc(N)n1 [hsp90_120]
> 100		Cn1c2c([n+](C)c1CCl)C(=O)c1ccccc1C2=O [hsp90_128]
> 100		CCCC(=O)c1cc(O)c(O)c(O)c1 [hsp90_151]
7.51	8.33	O=C(c1ccc(O)cc1)c1cc(Cl)ccc1O [hsp90_164]
> 100		CC(=O)Oc1ccc([N+](=O)[O-])c2ccccc12 [hsp90_165]
> 100		O=C(CCl)NCc1cc(C(=O)c2ccc(OCCO)c(Cl)c2Cl)cc(Cl)c1O [hsp90_171]
> 100		CC(=O)Oc1ccc2c(=O)c(Cc3ccccc3)c(C)oc2c1OC(C)=O [hsp90_174]
10.6	3.11	O=C(c1ccc(O)cc1)c1ccc(O)cc1O [hsp90_176]
20.4	7.45	Nc1nc(N)nc(-c2ccccc2Cl)n1 [hsp90_179]
